# Reference: article PMC6152321, “High-Resolution Inhibition Profiling Combined with HPLC-HRMS-SPE-NMR for Identification of PTP1B Inhibitors from Vietnamese Plants” (Molecules : A Journal of Synthetic Chemistry and Natural …, 2017)
# Tests used:
# [1] = molecular target: T1, Recombinant human protein tyrosine phosphatase 1B (PTP1B) (Homo sapiens, UniProt P18031); assay: In vitro PTP1B inhibition assay (pNPP hydrolysis, absorbance at 405 nm); format: biochemical; details: for IC50: isolated compounds, mean ± SD, n = 3
# T1 construct: purchased Enzo Life Sciences Inc. BML-SE332-0050
# T1 sequence (P18031 1-322 limits assumed): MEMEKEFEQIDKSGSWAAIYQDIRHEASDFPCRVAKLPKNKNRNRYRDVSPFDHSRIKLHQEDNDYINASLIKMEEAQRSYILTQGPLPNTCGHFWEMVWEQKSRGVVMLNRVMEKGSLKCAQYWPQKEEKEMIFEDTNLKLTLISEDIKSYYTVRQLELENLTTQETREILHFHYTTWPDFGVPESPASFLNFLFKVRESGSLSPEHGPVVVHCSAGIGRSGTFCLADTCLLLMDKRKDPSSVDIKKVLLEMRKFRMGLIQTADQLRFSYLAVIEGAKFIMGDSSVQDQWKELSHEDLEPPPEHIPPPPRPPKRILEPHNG
# Description: (§1) Based on the method described by Tahtah et al., the PTP1B inhibition assay was performed at 25 °C using a two-component buffer, containing 50 mM Tris, 50 mM bis-Tris and 100 mM NaCl, adjusted to pH 7.0 with acetic acid. The final reaction volume was 180 µL, including 18 µL test sample dissolved in DMSO, 52 µL of buffer with 3.46 mM EDTA (final well concentrations 10% DMSO and 1 mM EDTA), and 60 µL of buffer with 1.5 mM pNPP and 6 mM DTT (final well concentrations 0.5 mM pNPP and 2 mM DTT). After preincubation at 25 °C for 10 min, the reaction was started by addition of 50 µL of 0.001 µg/µL PTP1B stock solution (final well concentration: 0.05 µg/well). The hydrolysis rate of pNPP to release p-nitrophenol was determined by measuring the absorbance at 405 nm every 30 s for 10 min. Preincubation and absorbance measurements were performed with a Multiscan FC microplate photometer with a built-in incubator (Thermo Scientific, Waltham, MA, USA) coupled to SkanIt version 2.5.1 software for data acquisition. The PTP1B inhibitory activity was expressed as percentage inhibition and was calculated using the following formula: % inhibition = (Slopeblank − Slopesample)/Slopeblank × 100
# RK682 was used as a positive control and all measurements were performed in triplicate. Dose-response curves and IC50 values were obtained using GraFit version 5 (Erithacus Software Ltd., Horley, UK).
# [2] = molecular target: T1, Recombinant human protein tyrosine phosphatase 1B (PTP1B); assay: Kinetics of PTP1B inhibition (Lineweaver-Burk plots, Michaelis-Menten fit); format: biochemical; details: for Mode of Inhibition: from Lineweaver-Burk plots; for Ki: pNPP 0.125-4.0 mM, mean ± SD, n = 3
# Description: as §1
# Enzyme kinetics of isolated PTP1B inhibitors was measured in triplicate using the standard assay conditions described above. Reactions were carried out with increasing concentrations of pNPP (0.125, 0.25, 0.5, 1.0, 2.0 and 4.0 mM) as substrate in the absence and presence of test samples (4 concentrations). The mode of inhibition was determined graphically from the Lineweaver-Burk plots. Kinetic parameters were calculated by fitting the data to the Michaelis–Menten equation using non-linear regression analysis (GraphPad Prism 7.0, GraphPad Software Inc., La Jolla, CA, USA).
# PTP1B = details: cited from earlier work; for IC50: read-out: IC50 against PTP1B
smiles,measurement,setting,value
"CC(C)=C[C@@H]1C[C@](C)(/C=C/c2cc(-c3coc4cc(O)cc(O)c4c3=O)ccc2O)Oc2ccc(-c3coc4cc(O)cc(O)c4c3=O)cc21 [Compound 4, mucusisoflavone B]",IC50,[1],2.5 ± 0.2 µM
same,Mode of Inhibition,[2],Non-competitive
same,Ki,[2],3 ± 0.5 µM
"CC1(C)C=Cc2cc(-c3coc4cc(O)cc(O)c4c3=O)ccc2O1 [Compound 1, isoderrone]",IC50,[1],22.7 ± 1.7 µM
same,Mode of Inhibition,[2],Non-competitive
same,Ki,[2],21.3 ± 2.8 µM
same,PTP1B inhibition at 25 µM,PTP1B; concentration 25 µM,78%
"CC1(C)C=Cc2c(cc3occ(-c4ccc(O)cc4)c(=O)c3c2O)O1 [Compound 3, alpinumisoflavone]",IC50,[1],21.2 ± 3.8 µM
same,Mode of Inhibition,[2],Non-competitive
same,Ki,[2],14.3 ± 2 µM
same,IC50,PTP1B,37.52 ± 0.31 µM
"CC1(C)C=Cc2c(cc(O)c3c(=O)c(-c4ccc(O)cc4)coc23)O1 [Compound 2, derrone]",IC50,[1],12.6 ± 1.6 µM
same,Mode of Inhibition,[2],Non-competitive
same,Ki,[2],7.9 ± 1.9 µM
same,IC50,PTP1B,20.63 ± 0.17 µM
"CCCCCCCCCCCCCCCC(=O)C1=C(O)C(CO)OC1=O (centres unmarked) [RK682, reference compound]",IC50,[1],10.4 ± 1.6 µM
same,IC50 of RK682,[1]; positive control in crude extract screening,3.8 ± 0.6 µg/mL
